Experimental data published in patent US20210145772A1, “CAP[…] USE IN TREATING ACRAL LICK GRANULOMA” (Centrexion Therapeutics Corporation, priority 2014, published 2021).
“And” between values parts separate entries of the source, which are not always exact repeats. Equal values may be shown once.

What was measured:
Format in all cases: in vivo, dog (canine)
acral lick granuloma [1] = assay: Lesion size: measured long and short axis, surface area approximated as an ellipse
Protocol: (§1) Six dogs suffering from acral lick granuloma were treated using injectable capsaicin and evaluated.
(§2) After the screening visit, the dog returned to the site on Day 0 for injection with Study Drug. As a general procedure, dogs were anesthetized using a short-acting anesthetic protocol before injection of the Study Drug. If propofol was used, it was used for induction prior to gas anesthesia but not as a drip to maintain anesthesia. The area to be injected with Study Drug was prepared using site disinfection procedures that are routinely used at veterinary hospital.
(§3) The Study Drug was trans-capsaicin in a solution of polyethylene glycol 300 (PEG 300) and water for injection. The Study Drug was prepared by diluting (i) a solution of PEG 300 containing trans-capsaicin at a concentration of 2 mg/mL (hereinafter “Solution A”) with (ii) sterile water for injection. Solution A was diluted with a volume of sterile water for injection (WFI) in an amount equal to 4 to 5-fold to produce the Study Drug.
(§4) Study Drug was administered to the dog by subcutaneous injection at several locations under the index acral lick granuloma. The goal of the injection was to infiltrate the Study Drug at the junction between the granuloma and healthy tissue throughout the area of the lesion. The dose of trans-capsaicin per lesion to be administered was approximately 1.5 μg of trans-capsaicin per mm^2 of lesion. Each lesion to be injected was measured (mm) for long axis (length) and short axis (width). The approximate surface area was calculated based on an elliptical shape. Based on the calculated lesion areas, the calculated dose of trans-capsaicin per lesion ranged from <0.10 mg to 2.65 mg of trans-capsaicin. Dog reactions during and immediately after the injection procedure were recorded in the study records. Injections of Study Drug were performed using a 22 gauge needle.
(§5) Physical examinations of the dog including the injection site observation were conducted. General and dermatologic exams, including a description, measurements (dimensions), and digital photograph of the index lesion were collected.
(§6) An illustration of the lesion(s) from each dog prior to injection with Study Drug are provided in FIG. 1, along with illustrations of the lesions from each dog at Day 14 and separately at Day 28 of the study. FIG. 2 provides illustrations of the lesions from each dog prior to injection of Study Drug, at Day 14 of the study, and at Day 28 of the study, where the lesion is traced for Adobe Acrobat IX determination of lesion area.

acral lick granuloma [2] = assay: Lesion surface area from traced lesion photographs (Adobe Acrobat measurement tool)
Text: FIG. 2 provides illustrations of the lesion(s) from each dog prior to injection of Study Drug, at Day 14, and at Day 28 of the study, where the lesion is traced for Adobe Acrobat IX determination of lesion area, as further described in Example 1 herein.
as §2, §3, §4, §5, §6

acral lick granuloma [3] = assay: Client Specific Outcome Measure (CSOM), owner-scored, in dogs with acral lick granuloma after subcutaneous injection
Protocol: A clinical study was performed to evaluate the effect of injectable capsaicin in treating acral lick granuloma in canines. A total of six dogs suffering from acral lick granuloma were treated using injectable capsaicin and evaluated. Experimental procedures are described in Part I below.
as §1
At a Screening visit, the index lesion was examined. The diagnosis of the index granuloma was made based on characteristics of the lesion and history of licking. Veterinary personnel reviewed with each dog owner the concept and implementation of an Owner-derived efficacy assessment, the Client Specific Outcome Measure (CSOM, based loosely on the CSOM developed for use with osteoarthritis (Gingerich D, and Strobel J. in “Use of client-specific outcome measures to assess treatment effects in geriatric, arthritic dogs: Controlled clinical evaluation of a nutraceutical,” Vet. Ther. (2003) vol. 4, pages 56-66)), to assess the severity and progression of licking behavior associated with the acral lick granuloma. Up to three activities were identified and scored relative to their state prior to the acral lick granuloma (1-no problem, 2-mildly problematic, 3-moderately problematic, 4-severely problematic, 5-impossible). The CSOM assessment was completed at Screening Day (i.e., seven days before administration of capsaicin, also referred to as Day −7), Day 0, Day 14 (±2), and Day 28 (±3) until study termination.
as §2, §3, §4
As noted above, the severity of licking behavior caused by the acral lick granuloma was measured by the owner using a modification of a previously published system (Gingerich and Strobel 2003 noted above). During Screening, dog owners were interviewed by veterinary personnel trained in CSOM assessments (e.g., Study Coordinator) to identify one to three activities that have changed as a result of the acral lick granuloma. Activities focused on the use of the limb(s) with the index lesion and on behavioral responses. For example, excessive licking of the granuloma would be a behavioral response. […]

[4] = individual lesion of individual dog

## COc1cc(CNC(=O)CCCC/C=C/C(C)C)ccc1O [Study Drug, trans-capsaicin]
Acral lick granuloma [1]; average of 13 lesions
  Lesion surface area (ellipse) Delta Day 14-baseline: 49
  Lesion surface area (ellipse) Delta Day 28-baseline: 200
  Lesion surface area (ellipse) Percent Change to Day 14: 6%
  Lesion surface area (ellipse) Percent Change to Day 28: 15%
  Lesion surface area Day 14 (approximation of an ellipse): 533 sq mm
  Lesion surface area Day 28 (approximation of an ellipse): 684 sq mm
Acral lick granuloma [1]; individual lesion
  Lesion surface area (ellipse) Delta Day 14-baseline: −55 and 291 and 0 and −63 and 163 and 329 and −188 and −115 and 57 and −48 and 263 and 55 and −51
  Lesion surface area (ellipse) Delta Day 28-baseline: −43 and 134 and −20 and −82 and 734 and 1250 and −75 and 151 and 148 and −7 and 393 and 55 and −39
  Lesion surface area (ellipse) Percent Change to Day 14: −100% and 285% and 0% and −76% and 16% and 62% and −47% and −19% and 20% and −14% and 15% and 5% and −65%
  Lesion surface area (ellipse) Percent Change to Day 28: −79% and 131% and −100% (2×) and 71% and 235% and −18% and 25% and 54% and −2% and 22% and 5% and −50%
  Lesion surface area Day 14 (approximation of an ellipse): 0 sq mm and 393 sq mm and 20 sq mm (2×) and 1195 sq mm and 862 sq mm and 216 sq mm and 483 sq mm and 334 sq mm and 292 sq mm and 2030 sq mm and 1060 sq mm and 27 sq mm
  Lesion surface area Day 28 (approximation of an ellipse): 12 sq mm and 236 sq mm and 0 sq mm (2×) and 1766 sq mm and 1782 sq mm and 329 sq mm and 749 sq mm and 425 sq mm and 333 sq mm and 2160 sq mm and 1060 sq mm and 39 sq mm
Acral lick granuloma [1]; [4]
  Lesion size Day 14-long axis: 0 mm and 25 mm and 5 mm (2×) and 65.3 mm and 46.5 mm and 18.2 mm and 39.7 mm and 29.7 mm and 25.3 mm and 55 mm and 45 mm and 7 mm
  Lesion size Day 14-short axis: 0 mm and 20 mm and 5 mm (3×) and 23.3 mm and 23.6 mm and 15.1 mm and 15.5 mm and 14.3 mm and 14.7 mm and 47 mm and 30 mm
  Lesion size Day 28-long axis: 5 mm and 20 mm and 0 mm (2×) and 88.2 mm and 65.2 mm and 23.3 mm and 46.1 mm and 31.1 mm and 20.5 mm and 55 mm and 45 mm and 10 mm
  Lesion size Day 28-short axis: 3 mm and 15 mm and 0 mm (2×) and 25.5 mm and 34.8 mm and 18 mm and 20.7 mm (2×) and 17.4 mm and 50 mm and 30 mm and 5 mm
Acral lick granuloma [2]; average of lesions
  Lesion surface area (Adobe Acrobat) Delta Day 14-baseline: −91
  Lesion surface area (Adobe Acrobat) Delta Day 28-baseline: 3
  Lesion surface area (Adobe Acrobat) Percent Change Day 14: −8%
  Lesion surface area (Adobe Acrobat) Percent Change Day 28: 7%
  Total Size of Lesion at Day 14 (Adobe Acrobat XI measurement tool): 462 sq mm
  Total Size of Lesion at Day 28 (Adobe Acrobat XI measurement tool): 557 sq mm
Acral lick granuloma [2]; individual lesion
  Lesion surface area (Adobe Acrobat) Delta Day 14-baseline: −4 and −924 and 37 and −146 and 25 and 282 and 290 and −230 and 106 and −103 and 81 and −503
  Lesion surface area (Adobe Acrobat) Delta Day 28-baseline: −62 and −924 and 76 and −260 and −136 and 594 and 1062 and −216 and 247 and −48 and 146 and −441
  Lesion surface area (Adobe Acrobat) Percent Change Day 14: −1% and −100% and 19% and −56% and 18% and 29% and 78% and −73% and 22% and −25% and 39% and −42%
  Lesion surface area (Adobe Acrobat) Percent Change Day 28: −11% and −100% (3×) and 39% and 61% and 287% and −68% and 52% and −12% and 70% and −37%
  Total Size of Lesion at Day 14 (Adobe Acrobat XI measurement tool): 568 sq mm and 0 sq mm and 232 sq mm and 114 sq mm and 161 sq mm and 1252 sq mm and 660 sq mm and 86 sq mm and 579 sq mm and 303 sq mm and 290 sq mm and 704 sq mm
  Total Size of Lesion at Day 28 (Adobe Acrobat XI measurement tool): 509 sq mm and 0 sq mm (3×) and 271 sq mm and 1564 sq mm and 1432 sq mm and 100 sq mm and 720 sq mm and 358 sq mm and 355 sq mm and 766 sq mm
Acral lick granuloma [3]; average of six dogs
  CSOM Day 14 (sum of identified activities): 4.8
  CSOM Day 28 (sum of identified activities): 6.3
  CSOM Delta Day 14-baseline: −3.0
  CSOM Delta Day 28-baseline: −1.5
  CSOM Percent Change to Day 14: −41%
  CSOM Percent Change to Day 28: −26%
Acral lick granuloma [3]; conclusion in words
  benefit to dogs suffering from acral lick granuloma as indicated by CSOM results: provided a benefit
Acral lick granuloma [3]; individual dog
  CSOM Delta Day 14-baseline: −1 (2×) and −2 and −6 and −4 (2×)
  CSOM Delta Day 28-baseline: −1 and 2 (2×) and −4 (3×)
Acral lick granuloma [3]; individual dog, Day 14 after s.c. injection, approx. 1.5 μg trans-capsaicin per mm^2 of lesion
  CSOM Day 14 (sum of identified activities): 1 and 7 and 9 and 6 and 2 and 4
Acral lick granuloma [3]; individual dog, Day 28 after s.c. injection
  CSOM Day 28 (sum of identified activities): 1 and 11 and 12 and 8 and 2 and 4
Acral lick granuloma [3]; individual dog, vs baseline
  CSOM Percent Change to Day 14: −50% (3×) and −22% and −10% and −67%
  CSOM Percent Change to Day 28: −50% (2×) and 22% and 20% and −33% and −67%
Acral lick granuloma [3]; six dogs
  average reduction in CSOM at Day 14 compared with baseline: 41%
  average reduction in CSOM at Day 28 compared with baseline: 26%
